From patent US6643591B1, “Use of computational and experimental data to model organic compound reactivity in cytochrome P450 mediated reactions and to optimize the design of pharmaceuticals” (University of Pittsburgh, priority 1998, dated 2003)

How the values were obtained:
P450cam = biological target: T1, P450cam (Pseudomonas putida, UniProt P00183); assay: Intramolecular isotope effects with purified P450cam; type: in vitro ADME, bacterial; settings: benzylic hydroxylation, -CH2D (d1) substrate
T1 construct: made in house
T1 sequence (P00183 2-415): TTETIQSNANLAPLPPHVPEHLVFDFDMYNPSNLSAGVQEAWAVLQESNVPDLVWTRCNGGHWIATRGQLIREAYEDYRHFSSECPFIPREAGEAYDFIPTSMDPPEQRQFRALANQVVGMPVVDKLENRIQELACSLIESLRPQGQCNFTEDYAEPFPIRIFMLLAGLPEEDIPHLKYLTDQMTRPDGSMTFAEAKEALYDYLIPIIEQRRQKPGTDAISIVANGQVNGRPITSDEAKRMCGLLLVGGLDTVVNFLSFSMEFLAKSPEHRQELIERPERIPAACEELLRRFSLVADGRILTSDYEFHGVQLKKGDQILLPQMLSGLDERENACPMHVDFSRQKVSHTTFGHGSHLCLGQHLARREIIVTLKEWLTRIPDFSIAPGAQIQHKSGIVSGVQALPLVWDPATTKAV
Method: For the intramolecular isotope effect experiments herein, a substrate is chosen that contains at least two symmetrical sites, with at least one site, but not all, isotopically labeled. A single concentration of substrate is incubated with enzyme, and the ratio of labeled to unlabeled compound in the isotopic mixture of products (or the corresponding rates of formation of products) are used to calculate a KIE.
Construction of expression plasmids for P450cam, Pd, and PdR as well as protein expression and purification have been described previously (Shimoji et al. (1998) Biochemistry 37, 8848-52).
Enzyme incubations with monodeuterated toluenes and p-xylene-α-^2H1-α′-^2H1 were performed in triplicate at a single substrate concentration of 0.25 mM. […] The kinetic parameters for metabolism of the substituted toluenes were determined by GC-MS analysis of the M-(dimethylsilyl) derivative of the product benzyl alcohols (see below).

various CYP enzymes = settings: mean over seven enzymes
CYP2B6 = biological target: T2, CYP2B6 (Homo sapiens, UniProt P20813); assay: Regioselectivity and inter-/intramolecular KIE for 4-methylanisole (Table 15); type: in vitro ADME
T2 sequence (P20813 1-491): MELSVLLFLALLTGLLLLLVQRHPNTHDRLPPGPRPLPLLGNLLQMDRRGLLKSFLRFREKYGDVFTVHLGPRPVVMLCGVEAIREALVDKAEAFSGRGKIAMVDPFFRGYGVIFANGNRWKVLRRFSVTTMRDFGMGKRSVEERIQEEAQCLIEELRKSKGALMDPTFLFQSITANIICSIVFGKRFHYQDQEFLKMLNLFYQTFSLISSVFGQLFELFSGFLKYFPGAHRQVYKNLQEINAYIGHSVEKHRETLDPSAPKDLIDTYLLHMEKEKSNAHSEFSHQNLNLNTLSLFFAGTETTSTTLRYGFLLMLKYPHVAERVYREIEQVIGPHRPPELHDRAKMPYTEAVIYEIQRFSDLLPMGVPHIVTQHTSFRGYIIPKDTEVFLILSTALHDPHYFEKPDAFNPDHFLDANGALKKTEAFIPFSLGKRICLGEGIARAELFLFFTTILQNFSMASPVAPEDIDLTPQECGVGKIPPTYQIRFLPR

CYP2C8 [1] = biological target: T3, CYP2C8 (Homo sapiens, UniProt P10632); assay: as above; type: in vitro ADME
T3 sequence (P10632 1-490): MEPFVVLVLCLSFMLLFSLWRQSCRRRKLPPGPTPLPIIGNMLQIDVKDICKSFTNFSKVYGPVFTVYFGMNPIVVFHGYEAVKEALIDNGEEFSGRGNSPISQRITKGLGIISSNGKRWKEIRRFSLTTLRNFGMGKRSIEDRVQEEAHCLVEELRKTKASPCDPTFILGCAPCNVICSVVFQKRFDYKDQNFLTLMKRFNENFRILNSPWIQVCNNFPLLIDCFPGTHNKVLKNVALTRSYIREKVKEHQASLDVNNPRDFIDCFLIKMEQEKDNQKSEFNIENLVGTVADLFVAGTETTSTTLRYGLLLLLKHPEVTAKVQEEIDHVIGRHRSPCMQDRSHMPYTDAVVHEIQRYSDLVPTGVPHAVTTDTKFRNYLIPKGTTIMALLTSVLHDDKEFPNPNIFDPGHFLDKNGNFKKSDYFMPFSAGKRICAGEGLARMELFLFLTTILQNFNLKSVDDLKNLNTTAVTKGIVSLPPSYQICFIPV

CYP2E1 = CYP2E1 (Homo sapiens, UniProt P05181); assay: as above; type: in vitro ADME
Sequence of CYP2E1 (P05181 whole entry): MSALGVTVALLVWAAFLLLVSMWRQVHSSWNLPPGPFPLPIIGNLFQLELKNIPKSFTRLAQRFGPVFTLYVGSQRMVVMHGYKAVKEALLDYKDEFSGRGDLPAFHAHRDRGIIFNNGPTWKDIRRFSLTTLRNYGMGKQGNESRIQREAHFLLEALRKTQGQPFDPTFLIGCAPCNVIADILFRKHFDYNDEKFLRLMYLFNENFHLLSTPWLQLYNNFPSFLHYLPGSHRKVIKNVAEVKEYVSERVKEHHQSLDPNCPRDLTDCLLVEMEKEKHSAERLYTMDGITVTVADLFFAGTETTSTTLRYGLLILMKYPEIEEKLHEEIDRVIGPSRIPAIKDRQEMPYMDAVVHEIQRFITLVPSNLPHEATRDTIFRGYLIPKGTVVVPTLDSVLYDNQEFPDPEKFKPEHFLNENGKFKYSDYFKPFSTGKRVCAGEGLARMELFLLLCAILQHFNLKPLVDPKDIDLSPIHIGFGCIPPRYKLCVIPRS

CYP2C8 [2] = biological target: T3, CYP2C8; assay: in vitro; settings: pH 7.4
CYP = assay: Experimental product ratios for aromatic oxidation; settings: Arom/benz
Description: These equations may be solved with the data in Table 4, which provides experimental data for aromatic oxidation reactions with a number of substrates.
Experimental metabolite ratios may also be used to parameterize the aromatic oxidation reaction in a theoretical model for CYP reactions. As with hydrogen atom abstraction discussed in the previous Examples, experimental ratios of aromatic oxidation to an alternate position may be determined using various CYP enzymes. These substrates were chosen based on their small size, the presence of an alternate position for metabolism, and their hydrophobicity.
In order for the substrates to be useful, the average of the rotation rates in the active sites should be rapid. […] Several human expressed CYP enzymes were used in these studies, including CYP1A1, 1A2, 2A6, 2B6, 2C8, 2C9, 2D6, 2E1, 3A4, and 3A5. The use of multiple enzymes insures that a reasonable average of any orientation preferences within the active site (see FIG. 1).

CYP2B6, CYP2C9, CYP4B1 = assay: in vitro; settings: pH 7.4, Regioselectivity BzH:Arom, range, isoforms 2B6, 2C9 and 4B1
multiple CYP isoforms = assay: in vitro; settings: pH 7.4, Regioselectivity BzH:ODAlk, range, range over the isoforms
CYP1A2, CYP2B1, CYP2E1 = assay: in vitro; settings: pH 7.4, Regioselectivity BzH:Arom, range, isoforms 1A2, 2B1 and 2E1

Row | Compound | Intramolecular KIE (kH/kD) (P450cam) | Benzylic/O-Dealkylation, Mean (various CYP enzymes) | Intermolecular KIE, Mean (various CYP enzymes) | Intramolecular KIE, Mean (various CYP enzymes) | Intermolecular KIE (CYP2B6; CYP2B6 (Table 15)) | Intramolecular KIE (CYP2B6; CYP2B6 (Table 15)) | δΔG^† (CYP2B6; CYP2B6, benzylic oxidation vs O-dealkylation) [kJ/mol] | Intermolecular KIE (CYP2C8 [1]; CYP2C8 (Table 15)) | Intramolecular KIE (CYP2C8 [1]; CYP2C8 (Table 15)) | δΔG^† (CYP2C8 [1]; CYP2C8, benzylic oxidation vs O-dealkylation) [kJ/mol] | Intermolecular KIE (CYP2E1; CYP2E1 (Table 15)) | Intramolecular KIE (CYP2E1; CYP2E1 (Table 15)) | δΔG^† (CYP2E1; CYP2E1, benzylic oxidation vs O-dealkylation) [kJ/mol] | selectivity ratio (CYP2C8 [2]) | Experimental Ratio (CYP) | selectivity ratio at 20 min, […] (CYP2B6, CYP2C9, CYP4B1) | selectivity ratio at 20 min, […] (multiple CYP isoforms) | selectivity ratio at 20 min, […] (CYP1A2, CYP2B1, CYP2E1)
1 | COc1ccc(C)cc1 [p-Methylanisole, p-methylanisole] | 4.44 | 10.60 (5.85) | 4.59 | 4.20 | 7.60 | 4.58 | 3.6 | 3.60 | 3.60 | 5.52 | 6.53 | 4.02 | 4.44 | – | – | – | – | –
2 | COc1ccccc1C [o-Methylanisole, o-methylanisole] | – | – | – | – | – | – | – | – | – | – | – | – | – | 1 | 1.76 | 1.6 to 22 | 1.2 to 3 | 0.3 to 0.6
